Experimental data reported in patent publication US20030157084A1, “Methods for preparing purified prostaglandin E synthase” (priority 2001, published 2003).
Like-named read-outs stand apart in the source and are kept apart here.

Legend:
purified His6-hPGES [1] = molecular target: T1, purified His6-hPGES (Homo sapiens, UniProt O14684); experiment: Reduction of 15-hydroperoxy-PGE2 (peroxidase activity) by purified his6-hPGES; format: biochemical; parameters: made in house; host or cells: E. coli BL21(DE3) with pLysSL; conditions: 37 ° C., 0.1 mg/ml enzyme, 0.16 mM 15 hydroperoxy-PGE2
T1 sequence (O14684 1-152): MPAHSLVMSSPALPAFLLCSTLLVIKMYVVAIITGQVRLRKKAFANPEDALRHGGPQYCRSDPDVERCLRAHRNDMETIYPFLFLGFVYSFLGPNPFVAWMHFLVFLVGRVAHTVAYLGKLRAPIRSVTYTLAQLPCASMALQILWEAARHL
Method: This is presented in a typical chromatogram (FIG. 12B) as compared to the buffer control (FIG. 12C) after 30 seconds of incubation.

purified His6-hPGES [2] = molecular target: T1, purified His6-hPGES; experiment: Isomerization of PGG2 into 15-hydroperoxy-PGE2 by purified His6-hPGES; format: biochemical; parameters: made in house; host or cells: E. coli BL21(DE3) with pLysSL
Method: PGG2 was prepared similarly to PGE2 (described above), omitting the L-tryptophan. The reaction was terminated by lowering the pH to 3 by adding 6 μl HCl (1M). Then, 45 μl acetonitrile was added and centrifugation was performed at 14,000 g, for 1 minute to remove the protein. […] In order to determine the formation of PGE2 and 15-Hydroperoxy PGE2, an aliquot (100 μl) was analyzed by RP-HPLC, combined with UV detection at 195 nm. The products were quantified based on the peak areas from known amounts of injected prostaglandins.

purified His6-hPGES [3] = molecular target: T1, purified His6-hPGES; experiment: PGES activity assay: glutathione dependent conversion of PGH2 to PGE2 by purified His6-hPGES; format: biochemical; parameters: made in house; host or cells: E. coli BL21(DE3) with pLysSL; conditions: for Specific activity: at Vmax
Method: PGE synthase activity of the purified polypeptide, i.e., the ability to catalyze the conversion of a substrate of PGES into a 9-keto, 11-alpha-hydroxy form, e.g., PGH2 into PGE2 can be determined as follows. […] The polypeptide suspected of having PGES activity is incubated in a buffer, e.g., a sodium phosphate buffer in the presence of about 1 to 5 mM, preferably, 2.5 mM glutathione (GSH). The reaction is started by the addition of PGH2 at about 5 to 20 μM, and preferably 10 uM, and the reaction mixture is then incubated either at 37° C., at room temperature, or preferably, at 0° C., for about one to ten minutes, and preferably, for about one minute. The reaction can be terminated by the addition of a solution reducing the pH to about 3 or 3.2. This can be achieved by the addition of acetonitrile/HCl (as described in Jakobsson et al. (1999) PNAS 96:7220) or by the addition of FeCl2, citric acid, and/or 11-beta PGE2, as described in the Examples. The formation of PGF2 alpha, PGE2 and PGD2 can be determined by reverse-phase high pressure liquid chromatograph (HPLC) and UV detection at 195 nm. For subjecting the proteins to HPLC, the reaction mixtures can be subjected to solid phase extraction, e.g., using C18 Chomabond columns; the samples eluted with acetone, dried and dissolved in acetonitrile. The samples are then ready for HPLC. More details of these methods are provided in the Examples, as well as in Jakobssen et al., supra, and in published PCT application No. WO 00/28022 by Jakobsson et al.
(§1) PGES activity was assayed in 50 mM sodium phosphate buffer, pH 7.4, in the presence of 2.5 mM reduced glutathione (GSH; obtained from Sigma Chemical Co. (St. Louis, Mo.) and either zero; 0.2; 0.4 or 0.6 mg/ml of purified hPGES. The reaction was started by the addition of 10 μM PGH2, and the samples were incubated for 1 minute at 0° C. until terminated by 20 mM FeCl2, 40 mM citric acid and 2.1 μM 11-β. PGE2, lowering the pH to 3. PGH2 was prepared by brief incubation of arachidonic acid with suspensions of the microsomal fraction of homogenate of the sheep vesicular gland essentially as described in Hamberg et al. (1974) PNAS 71:345 or Hecker et al. (1987) Biochem. Pharmacol. 36:851. L-tryptophan (5 mM) was used as electron donor. Purification was accomplished by straight-phase HPLC using a solvent system of 2.5% 2-propanol-hexane containing 0.002% acetic acid. Solid phase extraction using C18 Chromabond columns was performed immediately. The samples were eluted with acetone, dried and dissolved in acetonitrile (⅓ by vol. in H2O) and the formation of PGE2 was analyzed by reverse-phase HPLC on a C18 (3.9×150 mm, 4 μM particle size) column and UV detection at 195 nm.
(§2) The remaining protein was divided in two parts, one was stored at 4° C. for 5 days, and one was frozen and stored at −20° C. for the same time. The PGES activity in the three samples was compared with that in a membrane fraction without solubilization. PGES activity was determined, as described above, for various amounts of protein. The samples were incubated for 1 min on ice or at 37° C. before stopping the reaction. The activity of the purified proteins was compared with the activity in BL21(DE3) membrane fraction without solubilization.
(§3) All points were made in triplicate. The Michaelis-Menten constants KM and Vmax (maximum velocity) were derived by hyperbolic regression with the computer program GraphPad Prism software 3.0 or 3.02 (GraphPad Software, Inc., San Diego, Calif.).

purified His6-hPGES [4] = molecular target: T1, purified His6-hPGES; experiment: as above; format: biochemical; parameters: made in house; host or cells: E. coli BL21(DE3) with pLysSL; conditions: sulfhydryl compound in place of GSH
purified His6-hPGES [5] = molecular target: T1, purified His6-hPGES; conditions: 37 ° C., 0.05 mg/ml enzyme, 1 mM GSH, 0.5 mM cumene hydroperoxide
purified His6-hPGES [6] = molecular target: T1, purified His6-hPGES; experiment: Glutathione transferase (GST) activity of purified His6-hPGES with CDNB; format: biochemical; parameters: made in house; host or cells: E. coli BL21(DE3) with pLysSL; conditions: pre-incubation with 5 mM N-ethylmaleimid in the absence of GSH for 1 minute
Method: Glutathione transferase (GST) activity (glutathione conjugation) was assayed with the classical model substrate for GSTs, p-chloro-2,4-dinitrobenzene (CDNB). […] Formation of product was detected at 340 nm (molar absorption coefficient for the product, GS-DNB, is 9.6 mM^−1 cm^−1).

A549 cells = experiment: Induction of PGE synthase and cyclooxygenase-2 in A549 cells; format: cell-based; conditions: IL-1β 1 ng/ml
Method: Microsomal fractions of A549 cells cultured with or without IL-1 β 1 ng/ml) for 0, 12, 24, 36 or 72 hours were subjected to SDS-PAGE and Western blot analysis. As positive control, the membrane fraction from bacteria expressing human PGE synthase was included. In all lanes of the gel, 10 μg of total protein was analyzed, except for the human PGE synthase where 2 μg was loaded. The Western blot was then incubated with antipeptide antiserum against PGE synthase. The blot was then stripped and incubated with antiserum against COX-2.
In order to study the possible correlation between the result from the Western blot and PGE synthase activity, the corresponding microsomes were incubated in the presence of PGH2 and reduced glutathione as described above. Briefly, microsomes (0.03 mg/ml) were incubated with PGH2 (11 μM) for 30 seconds at 0° C., followed by extraction and analysis by RP-HPLC. […] In addition, no corresponding activity was detected in the cytosolic fractions.

[7] = format: physicochemical
Method: Membrane fractions were solubilized in 50 mM sodium phosphate buffer, pH 8.0, 150 mM NaCl, 4% Triton X-100, 10% glycerol and 1 mM GSH and stored at 4° C. Samples were assayed for PGES activity as described above after 0, 3, 6, 24 and 240 h (10 days) at 4° C.
as §2

[8] = Specific activity and kinetic properties of purified His6-hPGES for conversion of PGH2 to PGE2; format: biochemical; conditions: for Specific activity of the purified His6-hPGES: glutathione dependent conversion of PGH2 to PGE2
Method: as §1, §2, §3

[9] = 37° C., steady state, KM values apparent, read-out: KM

Molecule: CCCCC[C@@H](/C=C/[C@H]1[C@H](O)CC(=O)[C@@H]1C/C=C\CCCC(=O)O)OO [15-hydroperoxy-PGE2, 15-Hydroperoxy PGE2]
- Specific activity (reduction of 15-hydroperoxy-PGE2) (purified His6-hPGES [1]): 0.043 ± 0.019 µmol/min/mg
- Specific activity (reduction of 15-hydroperoxy-PGE2) (purified His6-hPGES [1]; listed as 15-HP PGE2): no peroxidase activity towards this compound was detected

Molecule: CCCCC[C@@H](/C=C/[C@@H]1[C@@H](C/C=C\CCCC(=O)O)[C@@H]2C[C@H]1OO2)OO [PGG2]
- kcat (purified His6-hPGES [2]; 37° C., steady state, PGG2 as substrate): 75 ± 4 s⁻¹
- Km (purified His6-hPGES [2]; 37° C., steady state, PGG2 as substrate, apparent): 160 ± 30 µM
- Specific activity (purified His6-hPGES [2]; 37 ° C., substrate PGG2, highest measured specific activity): 250 ± 15 µmol/min/mg

Molecule: N[C@@H](CCC(=O)N[C@@H](CS)C(=O)NCC(=O)O)C(=O)O [GSH, reduced glutathione]
- kcat (purified His6-hPGES [3]; 37° C., steady state): 21 ± 1 s⁻¹
- Km (purified His6-hPGES [3]; [9]): 710 ± 200 µM

Molecule: OCCS [2-mercaptoethanol]
- PGES activity when GSH was substituted by other sulfhydryl compounds (purified His6-hPGES [4]): no PGES-activity could be detected

Molecule: CC(=O)N[C@@H](CS)C(=O)O [N-acetylcysteine]
- PGES activity when GSH was substituted by other sulfhydryl compounds (purified His6-hPGES [4]): no PGES-activity could be detected

Molecule: O[C@H](CS)[C@H](O)CS (racemic) [dithiothreitol]
- PGES activity when GSH was substituted by other sulfhydryl compounds (purified His6-hPGES [4]): no PGES-activity could be detected

Molecule: cumene hydroperoxide
- Specific activity (GSH-dependent peroxidase) (purified His6-hPGES [5]): 0.17 ± 0.02 µmol/min/mg
- Specific activity (GSH-dependent peroxidase) (purified His6-hPGES [5]; listed as cumene hydroperoxide): 0.17 µmol/min/mg

Molecule: CCN1C(=O)C=CC1=O [N-ethylmaleimide]
- Reduction of PGES activity (purified His6-hPGES [3]; pre-incubation with 5 mM N-ethylmaleimide in the absence of GSH for 1 minute): ~100%
- Reduction of GST enzyme activity (purified His6-hPGES [6]): 50%

Molecule: CCCCC[C@H](O)/C=C/[C@@H]1[C@@H](C/C=C\CCCC(=O)O)[C@@H]2C[C@H]1OO2 [PGH2, Prostaglandin endoperoxide H2]
- Vmax (purified His6-hPGES [3]; 0° C., 1 μg/ml purified PGES, 2.5 mM GSH, varying PGH2): 0.25 ± 0.013 µM/s
- Km (purified His6-hPGES [3]; 0° C., 1 μg/ml purified PGES, 2.5 mM GSH, varying PGH2, read-out: Km for PGH2): 50 ± 8.9 µM
- Vmax (purified His6-hPGES [3]; 37° C., 1 μg/ml purified PGES, 2.5 mM GSH, varying PGH2): 1.39 ± 0.16 µM/s
- Km (purified His6-hPGES [3]; 37° C., 1 μg/ml purified PGES, 2.5 mM GSH, varying PGH2, read-out: Km for PGH2): 163 ± 42 µM
- kcat (purified His6-hPGES [3]; 37° C., steady state): 50 ± 6 s⁻¹
- Km (purified His6-hPGES [3]; [9]): 160 µM
- Specific activity (purified His6-hPGES [3]; substrate PGH2, 0 ° C.): 15 µmol/min/mg
- Specific activity (purified His6-hPGES [3]; substrate PGH2, 37 ° C.): 170 ± 20 µmol/min/mg

Molecule: IL-1β: proinflammatory cytokine interleukin-1β, added to A549 cells at 1 ng/ml
- COX-2 and PGE synthase protein expression (Western blot) (A549 cells; microsomal fractions, 0-72 hours): tandem upregulation of COX-2 and PGE synthase proteins
- PGE synthase activity in microsomes (A549 cells; up to 72 hours, microsomes 0.03 mg/ml, PGH2 11 μM, 30 seconds at 0° C.): increase over time

B1: His6-hPGES: full length human PGES fused at its N-terminus to six histidine residues (SEQ ID NO: 4), expressed in E. coli (protein)
chain: MHHHHHHMPAHSLVMSSPALPAFLLCSTLLVIKMYVVAIITGQVRLRKKAFANPEDALRHGGPQYCRSDPDVERCLRAHRNDMETIYPFLFLGFVYSFLGPNPFVAWMHFLVFLVGRVAHTVAYLGKLRAPIRSVTYTLAQLPCASMALQILWEAARHL
- Original activity remaining ([7]; 816 h): about 50%
- PGES activity in BL21 (DE3) membranes ([7]; in the absence of glycerol and GSH): rapidly declines within a period of 24 h
- PGES activity after heating ([7]; purified enzyme heated at 100° C. for 10 minutes): no PGES-activity could be detected
- Activity compared to the freshly prepared enzyme ([7]; purified enzyme, five days of storage at 4° C.): unchanged
- Loss of activity on storage ([7]; purified enzyme, up to at least two months at −20° C.): does not seem to result in any loss of activity
- Specific activity of the purified His6-hPGES ([8]; 0° C.): 15 µmol/min/mg
- Specific activity of the purified His6-hPGES ([8]; 37° C.): 167 µmol/min/mg
- Km ([8]; Human, recombinant): 163 µM
- Spec. Act. ([8]; Human, recombinant): 167 µmol/min/mg
- kcat ([8]; Human, recombinant): 50 s⁻¹
